{"source": "patent US9403785B2", "about": "“Process for preparing amorphous cabazitaxel” (SHILPA MEDICARE LIMITED, priority 2012, dated 2016)", "key": {"[1]": {"assay": "Storage stability of solid form (morphology and physicochemical characteristics)", "details": "solid material obtained after solvent recovery", "text": "The merit of the process according to the present invention resides in that—product obtained after recovery is obtained in non-solvated amorphous form of Cabazitaxel. Said material was found devoid of any crystal lattice and adequately stable to handle and store for longer time (at least up to more than 6 months) without any significant or measurable change in its morphology and physicochemical characteristics."}, "[2]": {"details": "cited from earlier work"}, "[3]": {"details": "compared with acetone solvate form (Form A); cited from earlier work"}}, "data": [{"smiles": "CO[C@H]1C(=O)[C@@]2(C)C([C@H](OC(=O)c3ccccc3)[C@]3(O)C[C@H](OC(=O)[C@H](O)[C@H](NC(=O)OC(C)(C)C)c4ccccc4)C(C)=C1C3(C)C)[C@]1(OC(C)=O)CO[C@@H]1C[C@@H]2OC", "note": "(stereo in doubt) [(2α,5β,7β,10β,13α)-4-acetoxy-13-({(2R,3S)-3[(tert-butoxy-carbonyl)amino]-2-hydroxy-3-phenylpropanoyl}oxy)-1-hydroxy-7,10-dimethoxy-9-oxo-5,20-epoxytax-11-en-2-yl benzoate]", "values": [{"measurement": "time handled and stored without any significant or measurable change in morphology and physicochemical characteristics", "setting": "[1]", "value": "more than 6 months"}]}, {"smiles": "CO[C@H]1C(=O)[C@@]2(C)C([C@H](OC(=O)c3ccccc3)[C@]3(O)C[C@H](OC(=O)[C@H](O)[C@H](NC(=O)OC(C)(C)C)c4ccccc4)C(C)=C1C3(C)C)[C@]1(OC(C)=O)CO[C@@H]1C[C@@H]2OC", "note": "(stereo partly drawn) [Cabazitaxel, (2α,5β,7β,10β,13α)-4-acetoxy-13-({(2R,3S)-3[(tert-butoxycarbonyl)amino]-2-hydroxy-3-phenylpropanoyl}oxy)-1-hydroxy-7,10-dimethoxy-9-oxo-5,20-epoxytax-11-en-2-yl benzoate]", "values": [{"measurement": "solubility in water", "setting": "[2]", "value": "practically insoluble in water"}]}, {"smiles": "CO[C@H]1C(=O)[C@]2(C)[C@@H](OC)C[C@H]3OC[C@@]3(OC(C)=O)[C@H]2[C@H](OC(=O)c2ccccc2)[C@]2(O)C[C@H](OC(=O)[C@H](O)[C@@H](NC(=O)OC(C)(C)C)c3ccccc3)C(C)=C1C2(C)C", "note": "[Form D anhydrous, 4-acetoxy-2α-benzoyloxy-5β,20-epoxy-1-hydroxy-7β,10β-dimethoxy-9-oxotax-11-en-13α-yl (2R,3S)-3-tert-butoxycarbonylamino-2-hydroxy-3-phenyl-propionate]", "values": [{"measurement": "stability of solid form", "setting": "[3]", "value": "highly stable, even more stable than acetone solvate form (Form A)"}]}]}
